Reference: patent US8163909B2, “Substituted hydroxyethyl amine compounds as beta-secretase modulators and methods of use” (Amgen Inc., priority 2007, dated 2012)
pIC50: −log10 of the molar value. Where two headings read alike, the source gives them in different places.

Key:
[1] = target: Beta Secretase enzyme (BACE) (Homo sapiens, UniProt P56817); assay: In vitro enzymatic BACE FRET (fluorescence resonance energy transfer) assay; assay type: biochemical; settings: for IC50: BACE enzyme assay, IC50's in uM;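 on all read-outs here: fluorescence read after 1 h with 50 nM quenched peptide substrate spanning the BACE cleavage site, in pH 4.2 acetate buffer containing 10% DMSO and nonionic detergent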
Beta Secretase enzyme (BACE), sequence (P56817 46-501): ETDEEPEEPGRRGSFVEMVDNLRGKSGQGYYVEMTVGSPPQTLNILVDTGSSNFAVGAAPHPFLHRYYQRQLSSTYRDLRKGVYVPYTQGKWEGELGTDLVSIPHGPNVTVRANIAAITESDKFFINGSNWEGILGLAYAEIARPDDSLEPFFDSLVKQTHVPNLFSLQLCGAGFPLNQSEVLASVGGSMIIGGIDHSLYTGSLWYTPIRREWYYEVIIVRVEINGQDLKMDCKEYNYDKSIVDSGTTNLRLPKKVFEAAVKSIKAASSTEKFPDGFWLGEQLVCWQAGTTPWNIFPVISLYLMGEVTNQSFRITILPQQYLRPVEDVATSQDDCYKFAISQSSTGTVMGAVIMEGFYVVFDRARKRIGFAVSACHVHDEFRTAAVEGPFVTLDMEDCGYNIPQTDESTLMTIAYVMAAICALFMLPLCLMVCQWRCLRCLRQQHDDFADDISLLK

[2] = tested on: Aβ40 in conditioned medium of cells stably expressing Amyloid Precursor Protein (APP); assay: In vitro BACE cell-based assay (Aβ40 in conditioned medium, sandwich ELISA); settings: Homo sapiens; for IC50: IC50's in uM;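 on all read-outs here: compounds added as a dilution series, secreted peptide quantified by europium time-resolved fluorescence readout, potency fitted from percent of control versus compound concentration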
[3] = target: CYP3A4 (CYP3A) (Homo sapiens, UniProt P08684); assay: in vitro; settings: microsomes, pH 7.4;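 further: inhibition of CYP3A-mediated 1-hydroxymidazolam formation after 10 min incubation with NADPH, quantified by HPLC MS relative to metabolite produced without test compound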
CYP3A4 (CYP3A), sequence (P08684 2-503): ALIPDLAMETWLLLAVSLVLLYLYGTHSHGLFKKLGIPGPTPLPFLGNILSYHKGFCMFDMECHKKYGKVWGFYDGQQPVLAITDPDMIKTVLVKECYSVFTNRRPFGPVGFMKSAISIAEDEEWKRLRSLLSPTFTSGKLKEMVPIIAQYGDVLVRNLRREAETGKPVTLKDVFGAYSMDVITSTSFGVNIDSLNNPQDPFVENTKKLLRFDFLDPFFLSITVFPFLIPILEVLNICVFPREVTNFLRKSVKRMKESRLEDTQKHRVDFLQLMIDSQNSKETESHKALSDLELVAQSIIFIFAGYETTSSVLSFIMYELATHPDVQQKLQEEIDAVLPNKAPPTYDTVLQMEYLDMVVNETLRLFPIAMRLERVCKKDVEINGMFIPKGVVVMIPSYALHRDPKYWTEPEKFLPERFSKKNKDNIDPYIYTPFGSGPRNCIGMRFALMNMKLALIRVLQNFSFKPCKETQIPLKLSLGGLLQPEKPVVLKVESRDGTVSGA

[4] = Microsomal stability assay, rat liver microsomes;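 further: rat liver microsomes (0.25 mg/mL) with about 1 µM compound plus 1 mM NADPH, pH 7.4, 37 °C for 30 min, parent left measured by LC-MS/MS against 0 min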
[5] = Microsomal stability assay, human liver microsomes;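 further: pooled human liver microsomes at 0.25 mg/mL with 1 µM compound and NADPH at 37 °C, pH 7.4, for 30 min, unchanged parent quantified by LC-MS/MS against the 0 min sample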
[6] = target: CYP2D6 (Homo sapiens, UniProt P10635); assay: CYP2D6 inhibition assay (bufuralol, pooled human liver microsomes); settings: for IC50: 2D6 IC50 (uM)
CYP2D6, sequence (P10635 whole entry): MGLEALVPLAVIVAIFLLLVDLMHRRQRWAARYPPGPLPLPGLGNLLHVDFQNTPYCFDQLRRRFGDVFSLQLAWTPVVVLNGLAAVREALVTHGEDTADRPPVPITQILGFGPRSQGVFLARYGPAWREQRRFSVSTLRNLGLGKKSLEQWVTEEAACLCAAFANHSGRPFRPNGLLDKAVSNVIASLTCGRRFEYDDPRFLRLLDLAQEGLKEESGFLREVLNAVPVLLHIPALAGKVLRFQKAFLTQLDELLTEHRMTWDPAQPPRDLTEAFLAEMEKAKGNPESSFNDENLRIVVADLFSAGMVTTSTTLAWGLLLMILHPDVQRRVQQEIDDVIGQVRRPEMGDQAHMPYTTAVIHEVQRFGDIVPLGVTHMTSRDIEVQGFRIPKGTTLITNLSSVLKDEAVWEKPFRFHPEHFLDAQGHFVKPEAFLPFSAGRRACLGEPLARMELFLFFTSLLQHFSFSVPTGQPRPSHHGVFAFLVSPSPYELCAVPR

[7] = HEK293, HEK cell-based assay, read-out: HEK cell assay
[8] = BACE enzyme assay IC50, read-out: BACE1 FRET assay
[9] = HEK293, HEK cell-based assay IC50, read-out: HEK cell assay
[10] = 2D6 IC50, CYP enzyme inhibition
[11] = read-out: BACE1 FRET assay (IC50)
[12] = HEK293, HEK cells, read-out: HEK cell assay (IC50)

Row | Compound | IC50 ([1]; read-out: BACE1 FRET assay) | IC50 [2, 7] | pIC50 [3] | RLM ([4]; rat liver microsomal data) | HLM ([5]; human liver microsomal data) | pIC50 [1, 8] | pIC50 [2, 9] | RLM ([4]; rat liver microsomes) | HLM ([5]; human liver microsomes) | IC50 ([6]; CYP2D6 inhibition) | further results
1 | CC(C)Cc1cnc2c(c1)[C@@H](NC[C@H](O)[C@@H](Cc1cccc(-c3nccs3)c1)NC(=O)[C@H]1CCCO1)CC1(CCC1)O2 [compound 795] | 0.286 µM | 0.206 µM | 6.70 | 64 µL/min/mg | 127 µL/min/mg | – | – | – | – | – | IC50 ([6]; CYP enzyme inhibition): 0.6 µM
2 | CO[C@H](C)C(=O)N[C@@H](Cc1cc(F)cc(F)c1)[C@H](O)CN[C@H]1CC2(CCC2)Oc2cnc(CC(C)C)cc21 [compound 688] | – | – | 6.70 | – | – | 8.05 | 7.44 | 399 µL/min/mg | 921 µL/min/mg | 3 µM | –
3 | COC(OC)C(=O)N[C@@H](Cc1cc(F)cc(-c2nccs2)c1)[C@H](O)CN[C@H]1CC2(CCC2)Oc2ncc(CC(C)(C)C)cc21 [compound 871] | 0.007 µM | – | 6.70 | 73 µL/min/mg | 59 µL/min/mg | – | – | – | – | – | IC50 ([2]; HEK293, cell-based assay, HEK cells, read-out: HEK cell assay): 0.01 µM; pIC50 [6, 10]: 6.15
4 | CC(=O)N[C@@H](Cc1cc(F)cc(-c2ccncc2)c1)[C@H](O)CN[C@H]1CC2(CCC2)Oc2ncc(CC(C)(C)C)cc21 [compound 614] | – | – | 6.80 | – | – | – | – | 107 µL/min/mg | 244 µL/min/mg | – | pIC50 [1, 11]: 7.92; pIC50 [2, 12]: 8.10; pIC50 ([6]; 2D6 IC50, CYP2D6 inhibition): 6.40
5 | CC(=O)CC(=O)N[C@@H](Cc1cccc(F)c1)[C@H](O)CN[C@H]1CC2(CCC2)Oc2ncc(CC(C)(C)C)cc21 [compound 466] | – | – | 5.92 | 165 µL/min/mg | 296 µL/min/mg | – | – | – | – | – | pIC50 ([1]; Table 2, read-out: BACE1 FRET assay): 8.40; pIC50 ([2]; HEK293, Table 2, HEK cells, read-out: HEK cell assay): 8.10; pIC50 [6, 10]: 5.05
6 | CCC(=O)N[C@@H](Cc1ccc2c(c1)OCO2)[C@H](O)CN[C@H]1CC2(CCC2)Oc2ncc(CC(C)C)cc21 [compound 726, N-((1S,2R)-1-(1,3-benzodioxol-5-ylmethyl)-2-hydroxy-3-(((4′S)-6′-(2-methylpropyl)-3′,4′-dihydrospiro[cyclobutane-1,2′-pyrano[2,3-b]pyridin]-4′-yl)amino)propyl)propanamide] | – | – | ≥ 7.52 | – | – | 7.36 | 7.32 | 173 µL/min/mg | 34 µL/min/mg | 1.4 µM | –
7 | COCC(=O)N[C@@H](Cc1ccc(-c2nccs2)c(F)c1)[C@H](O)CN[C@H]1CC2(CCC2)Oc2ncc(CC(C)C)cc21 [compound 787] | 0.11 µM | 0.451 µM | 6.70 | 79 µL/min/mg | 58 µL/min/mg | – | – | – | – | – | IC50 ([6]; CYP enzyme inhibition): 0.8 µM
8 | Cc1ccc(CN2CCO[C@@H](C(=O)N[C@@H](Cc3ccc(F)cc3)[C@H](O)CN[C@H]3CC4(CCC4)Oc4ncc(CC(C)(C)C)cc43)C2)cc1 [compound 709] | – | – | 6.52 | – | – | 7.55 | 7.42 | 375 µL/min/mg | 614 µL/min/mg | 3.7 µM | –
9 | C#Cc1cc(C[C@H](NC(=O)COC)[C@H](O)CN[C@H]2CC3(CCC3)Oc3ncc(CC(C)C)cc32)ccc1F [compound 780, N-((1S,2R)-1-(3-ethynyl-4-fluorobenzyl)-2-hydroxy-3-(((4′S)-6′-(2-methylpropyl)-3′,4′-dihydrospiro[cyclobutane-1,2′-pyrano[2,3-b]pyridin]-4′-yl)amino)propyl)-2-methoxyacetamide] | 0.01 µM | 0.032 µM | 7.00 | 74 µL/min/mg | 61 µL/min/mg | – | – | – | – | – | pIC50 [6]: 5.85
10 | COCC(=O)N[C@@H](Cc1cc(F)cc(-c2ccncc2)c1)[C@H](O)CN[C@H]1CC2(CCC2)Oc2ncc(CC(C)(C)C)cc21 [compound 613] | – | – | 6.80 | – | – | – | – | 142 µL/min/mg | 228 µL/min/mg | – | pIC50 [1, 11]: 7.70; pIC50 [2, 12]: 7.96; pIC50 ([6]; 2D6 IC50, CYP2D6 inhibition): 6.52
